{"source": "patent US12491249B2", "about": "“Methods for manufacturing phthalocyanine dye conjugates and stable conjugates” (Rakuten Medical, Inc., priority 2015, dated 2025)", "key": {"[1]": {"details": "cited from earlier work"}, "A431 cells": {"system": "A431 cells", "assay": "EGF-IR700 light-dependent killing", "assay_type": "cell-based", "details": "for light-dependent killing after conjugate pre-exposure: 1 μg/mL", "description": "To assess if EGF-IR700 cell killing was assessed in A431 cells. A431 cells were seeded at 5000 cells per well in 96 well white clear bottom dishes one day prior to the experiment. The following day, the A431 cells were washed three times with EMEM supplemented with 1% Penicillin/Streptomycin (serum free media). The A431 cells were then washed one time with serum free media, then incubated with serum free media containing 1 sg/mL of EGF-IRDye 700DX for one hour at 4° C. or serum free media only. As a control to assess the specificity of the activity, in one condition A431 cells were pre-incubated with 100 sg/mL unconjugated cetuximab diluted in serum free media for one hour at 4° C. prior to incubation with 1 sg/mL of EGF-IRDye 700DX. The cells were then washed one time with serum free media.\nTo induce IR700-dependent killing, the cells were then illuminated with a 690 nm laser with 32 J/cm^2 of light or protected from light (“no light”). Cell death was evaluated as described in Example 9 using CellTox Green. The normalized percentage of dead cells was calculated by subtracting all wells by the percentage of dead cells from the no light serum free media only control, dividing by EGF-IRDye 700DX at 32 J/cm^2 minus the no light serum-free media only control, and multiplied 100.\nThe effect of EGF-IRDye 700DX pre-exposure to white light versus green light on photo-activated cell killing was also evaluated in A431 cells. EGF-IRDye 700DX was pre-exposed to different types of light and the effect of light treatment on photo-activated killing activity was evaluated. Five microliters of EGF-IRDye 700DX conjugate (DAR 2) was added per clear HPLC vial at a EGF-IRDye 700DX concentration of 1.14 mg/mL. The following conditions were tested: (1) the antibody-IRDye 700DX conjugate stored at 4° C. protected from light (“4° C.”, used as the control); (2). antibody-IRDye 700DX conjugate placed in a clear glass HPLC tube under a Halogen lamp at 2500 lux for 24 hrs (“white light”); (3) antibody-IRDye 700DX conjugate placed in a clear glass HPLC tube wrapped in aluminum foil to protect from light exposure under Halogen lamp at 2500 lux for 24 hrs (“no light”, used as a control for thermal heating effects on the formation of aggregates); and (4) antibody-IRDye 700DX conjugate placed in a clear glass HPLC tube and exposed to green LED lamp at 2500 lux for 24 hrs (“green light”).\nTo assess cell killing activity, A431 cells were washed two times with serum free media, and incubated in serum free media alone for one hour at 4° C. The cells were then washed one time with serum free media and incubated with serum free media alone or serum free media containing 1 μg/mL of EGF-IRDye 700DX (“no light”), serum free media containing 1 μg/mL of EGF-IRDye 700DX pre-exposed to white light (“2500 Lux White light”), or serum free media containing 1 μg/mL EGF-IRDye 700DX pre-exposed to green light for one hour at 4° C. (“2500 Lux Green light”). The cells were then washed one time with serum free media.\nTo induce cell killing, the cells were either protected from light (light dose 0 J/cm^2) or were illuminated with a 690 nm laser with different light dosimetries (8 J/cm^2, 32 J/cm^2 or 64 J/cm)."}}, "note": "Like-named read-outs stand apart in the source and are kept apart here."}
{"compound": "C=Cc1c(C)c2cc3nc(c(CC(=O)N[C@@H](CC(=O)[O-])C(=O)[O-])c4[nH]c(cc5nc(cc1[nH]2)C(C)=C5CC)c(C)c4C(=O)[O-])[C@@H](CCC(=O)[O-])[C@@H]3C.[Na+].[Na+].[Na+].[Na+]", "note": "[NPe6/Laserphyrin, mono-L-aspartylchlorin e6]", "values": [{"measurement": "extinction coefficient", "setting": "[1]; at 654 nm", "result": 40000, "unit": "M⁻¹ cm⁻¹"}]}
{"compound": "EGF-IRDye 700DX: Human recombinant epidermal growth factor (EGF) conjugated to IRDye 700DX", "values": [{"measurement": "cell killing", "setting": "A431 cells; 1 sg/mL, 690 nm 32 J/cm^2 or no light", "result": "light-dependent killing"}, {"measurement": "cell killing after receptor blocking", "setting": "A431 cells; cells pre-exposed to 100 sg/mL unconjugated cetuximab, 1 sg/mL conjugate", "result": "blocked light-dependent cell killing"}, {"measurement": "light-dependent killing after conjugate pre-exposure", "setting": "A431 cells; green light, green LED lamp 2500 lux 24 hours", "result": "comparable to that of the “no light” EGF-IRDye 700DX"}, {"measurement": "light-dependent killing after conjugate pre-exposure", "setting": "A431 cells; protected from light, thermal heating under halogen lamp 2500 lux 24 hours", "result": "exhibited light-dependent killing"}, {"measurement": "light-dependent killing after conjugate pre-exposure", "setting": "A431 cells; white light, halogen lamp 2500 lux 24 hours", "result": "no longer exhibited light-dependent killing activity"}]}
{"compound": "Photofrin", "values": [{"measurement": "extinction coefficient", "setting": "[1]; at 630 nm", "result": 1200, "unit": "M⁻¹ cm⁻¹"}]}
